The record followed here is publication PMC9121888 (Pharmacology Research & Perspectives, 2022).

Each structure is given as a SMILES string. Read-outs that look alike come from different tables or passages of the source.

Series [1] in a line: Study 1 plasma pharmacokinetics of verinurad, allopurinol and oxypurinol. To be noted: for Tmax: median (range). It counts as in vivo, human. How it is done: Cohort 1 was randomized, double‐blind, and placebo‐controlled and consisted of 12 healthy Asian participants, of whom <50% were Chinese. Cohort 2 was open‐label, consisting of 9 healthy Chinese participants.
In both studies, participants received verinurad capsules with an extended‐release profile. On the days of pharmacokinetic sampling, treatment was given in fasting state.
Verinurad plasma samples were analyzed using similar methodologies as described by Shen et al.[13] with lower and upper limits of quantification of 0.100 ng/mL and 40.0 ng/mL, respectively.

Series [2] has as its system serum uric acid (sUA) and urinary uric acid (uUA). To be noted: for sUA mean percentage change from screening: after 300 mg allopurinol QD for 7 days, day 1 (pre-dose); for sUA level at baseline (day –1): following 7 days of 300 mg allopurinol run-in.
Setting [3] is: human, plasma, oral, healthy Asian participants, 24 mg verinurad + 300 mg allopurinol QD, Day 1, geometric mean (gCV%), read-out: Cmax.
[4] abbreviates: human, plasma, oral, healthy Asian participants, 24 mg verinurad + 300 mg allopurinol QD, Day 1, read-out: tmax.
The mark [5] stands for this setting: human, plasma, oral, healthy Asian participants, 24 mg verinurad + 300 mg allopurinol QD, Day 7, geometric mean (gCV%), read-out: AUCτ.
Where [6] appears, read: human, plasma, oral, healthy Asian participants, 24 mg verinurad + 300 mg allopurinol QD, Day 7, geometric mean (gCV%), read-out: Cmax.
Where [7] appears, read: human, plasma, oral, healthy Chinese participants, 12 mg verinurad + 300 mg allopurinol day 1 and QD days 3-9, Day 9, geometric mean (gCV%), read-out: AUCτ.
[8] abbreviates: human, plasma, oral, healthy Chinese participants, 12 mg verinurad + 300 mg allopurinol day 1 and QD days 3-9, Day 9, read-out: tmax.
Setting [9] is: human, plasma, oral, healthy Chinese participants, 12 mg verinurad + 300 mg allopurinol, Day 1, geometric mean (gCV%), read-out: AUC.
Where [10] appears, read: human, plasma, oral, healthy Chinese participants, 12 mg verinurad + 300 mg allopurinol, Day 1, geometric mean (gCV%), read-out: AUCτ.
The mark [11] stands for this setting: human, plasma, oral, healthy Chinese participants, 12 mg verinurad + 300 mg allopurinol, Day 1, geometric mean (gCV%), read-out: Cmax.
Where [12] appears, read: human, plasma, oral, healthy Chinese participants, 12 mg verinurad + 300 mg allopurinol, Day 1, read-out: tmax.

For the molecule `O=c1[nH]c(=O)c2c[nH]nc2[nH]1` [Oxypurinol, oxypurinol], the AUCτ in series [1] (healthy Asian participants, 24 mg verinurad + 300 mg allopurinol QD, Day 1, geometric mean (gCV%)) was 180700 (18.3) ng·h/mL. Further, the Tmax in series [1] (healthy Asian participants, 24 mg verinurad + 300 mg allopurinol QD, Day 7) was 4.00 (3.00–6.00) h; in series [1] (setting [4]), 3 h; in series [1] (setting [8]), 3.1 h; in series [1] (setting [12]) it was 2 h. In addition, the Cmax in series [1] (healthy Chinese participants, 12 mg verinurad + 300 mg allopurinol day 1 and QD days 3-9, Day 9, geometric mean (gCV%)) is 8520 (10.5) ng/mL; in series [1] (setting [3]), 11100 ng/mL; in series [1] (setting [6]), 7700 ng/mL; in series [1] (setting [11]), 11800 ng/mL. In addition, the AUC in series [1] (setting [5]) came out at 120000 ng·h/mL; in series [1] (setting [7]), 139000 ng·h/mL; in series [1] (setting [9]), 342000 ng·h/mL; in series [1] (setting [10]), 201000 ng·h/mL.

Regarding `Oc1ncnc2[nH]ncc12` [allopurinol, reference compound], the AUC was found to be 6220 ng·h/mL in series [1] (human, plasma, oral, healthy Asian participants, 24 mg verinurad + 300 mg allopurinol QD, Day 1, geometric mean (gCV%), read-out: AUC); 6230 ng·h/mL in series [1] (human, plasma, oral, healthy Asian participants, 24 mg verinurad + 300 mg allopurinol QD, Day 1, geometric mean (gCV%), read-out: AUCτ); 6020 ng·h/mL in series [1] (setting [5]); 5740 ng·h/mL in series [1] (setting [7]); 6210 ng·h/mL in series [1] (setting [9]); 6210 ng·h/mL in series [1] (setting [10]). Besides, the Cmax was 1770 ng/mL in series [1] (setting [3]); 1780 ng/mL in series [1] (setting [6]); 1570 ng/mL in series [1] (human, plasma, oral, healthy Chinese participants, 12 mg verinurad + 300 mg allopurinol day 1 and QD days 3-9, Day 9, geometric mean (gCV%), read-out: Cmax); 1940 ng/mL in series [1] (setting [11]). Besides, the Tmax turned out to be 2 h in series [1] (setting [4]); 3 h in series [1] (human, plasma, oral, healthy Asian participants, 24 mg verinurad + 300 mg allopurinol QD, Day 7, read-out: tmax); 2.55 h in series [1] (setting [8]); 1.52 h in series [1] (setting [12]). Besides, the figures for the “sUA mean percentage change from screening” value in series [2] (healthy Asian participants) and in series [2] (healthy Chinese participants) were −26.1% and −23.5%, respectively. Moreover, the “sUA level at baseline (day –1)” value was determined as 4.77 mg/dL in series [2] (healthy Asian participants, screening 6.31 mg/dL) and 4.49 mg/dL in series [2] (healthy Chinese participants, screening 5.64 mg/dL).
